The source of these data is patent US9884832B2 (priority 2011, dated 2018).

The target in the first test is AM2 S31 (wild-type serine at position 31 in the M2 protein), influenza virus A/Udorn/72 (Influenza A virus, UniProt P0DOF5). In words: cell-based. The note with it: 100 uM; Xenopus oocytes; activity range class; read-out: S31 OOcyte Inhibition at 100 uM (%).
Chain of AM2 S31 (wild-type serine at position 31 in the M2 protein), influenza virus A/Udorn/72 (P0DOF5 whole entry, looked up): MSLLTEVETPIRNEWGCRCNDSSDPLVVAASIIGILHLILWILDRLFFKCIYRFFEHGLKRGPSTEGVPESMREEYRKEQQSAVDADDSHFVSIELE
Broadly, the inhibition is the drop in the measured response relative to a control, in per cent. Take `O=C1CCCN1c1ccc(CNC23CC4CC(CC(C4)C2)C3)cc1` [Example 45a, 1-(4-((adamantan-1-ylamino)methyl)phenyl)pyrrolidin-2-one]: the inhibition at 100 µM is 0 to 30%.
The same measure, in the same setting: the figure for `Oc1cc(-c2ccoc2)ccc1CNC12CC3CC(CC(C3)C1)C2` [Example 46a] is 0 to 30%; for `Oc1cc(-c2ccccc2)ccc1CNC12CC3CC(CC(C3)C1)C2` [Example 47a, 4-(Adamantan-1-ylaminomethyl)-biphenyl-3-ol] it is 0 to 30%.
The same measure, in the same setting: the figure for `Oc1cc(-c2cc3ccccc3o2)ccc1CNC12CC3CC(CC(C3)C1)C2` [Example 48a] is 0 to 30%.
The same measure, in the same setting: the figure for `Oc1cc(-c2cccs2)ccc1CNC12CC3CC(CC(C3)C1)C2` [Example 49a] is 0 to 30%; for `Oc1cc(Br)ccc1CNC12CC3CC(CC(C3)C1)C2` [Example 50a, 2-(((3s,5s,7s)-adamantan-1-ylamino)methyl)-5-bromophenol] it is 31 to 95%; for `Cc1ccc(CNC23CC4CC(CC(C4)C2)C3)c(O)c1` [Example 51a] it is 31 to 95%.
`OCc1cc(Br)ccc1CNC12CC3CC(CC(C3)C1)C2` [Example 52a, [2-(Adamantan-1-ylaminomethyl)-5-bromo-phenyl]methanol]: the inhibition at 100 µM lay in the range of 0 to 30%.
On the same count and under the same terms, the figure for `Oc1c(CNC23CC4CC(CC(C4)C2)C3)ccc2ccccc12` [Example 53a, 2-(Adamantan-1-ylaminomethyl)-naphthalen-1-ol] is 31 to 95%.
Regarding `Brc1ccc(CNC23CC4CC(CC(C4)C2)C3)nc1` [Example 54a, Adamantan-1-yl-(5-bromo-pyridin-2-ylmethyl)-amine], the inhibition at 100 µM was in the range of 31 to 95%.
The same measure, in the same setting: the figure for `c1csc(-c2ccc(CNC34CC5CC(CC(C5)C3)C4)nc2)c1` [Example 55a, Adamantan-1-yl-(5-thiophen-2-yl-pyridin-2-ylmethyl)-amine] is 31 to 95%.
The same measure, in the same setting: the figure for `c1ccc2nc(CNC34CC5CC(CC(C5)C3)C4)ccc2c1` [Example 56a, Adamantan-1-yl-quinolin-2-ylmethyl-amine] is 31 to 95%.
On the same count and under the same terms, the figure for `Brc1ncc(CNC23CC4CC(CC(C4)C2)C3)cn1` [Example 57a, N-((2-bromopyrimidin-5-yl)methyl)adamantan-1-amine] is 0 to 30%; for `c1csc(-c2ccc(CNC34CC5CC(CC(C5)C3)C4)cn2)c1` [Example 58a, N-((6-(thiophen-2-yl)pyridin-3-yl)methyl)adamantan-1-amine] it is 31 to 95%; for `c1cc(-c2ccc(CNC34CC5CC(CC(C5)C3)C4)cn2)cs1` [Example 59a, N-((6-(thiophen-3-yl)pyridin-3-yl)methyl)adamantan-1-amine] it is 0 to 30%.
For the compound `c1coc(-c2ccc(CNC34CC5CC(CC(C5)C3)C4)cn2)c1` [Example 60a, N-((6-(furan-2-yl)pyridin-3-yl)methyl)adamantan-1-amine], the inhibition at 100 µM was in the range of 0 to 30%.
For `c1csc(-c2ncc(CNC34CC5CC(CC(C5)C3)C4)cn2)c1` [Example 61a, N-((2-(thiophen-2-yl)pyrimidin-5-yl)methyl)adamantan-1-amine], the inhibition at 100 µM is 0 to 30%.

Still in this test, the particulars now being: Table 1; 100 uM; Xenopus oocytes, pH 5.5, -20 mV; read-out: S31 OOcyte Inhibition at 100 uM (%).
With `Oc1ccc(CNC23CC4CC(CC(C4)C2)C3)c(O)c1` [Example 46, 4-(Adamantan-1-ylaminomethyl)-benzene-1,3-diol], the inhibition at 100 µM was in the range of 31 to 95%.
Same read-out and setting: the figure for `Oc1ccc(CNC23CC4CC(CC(C4)C2)C3)cc1Cl` [Example 47, 4-(Adamantan-1-ylaminomethyl)-2-chloro-phenol] is 31 to 95%.
Still for that read-out and setting: the figure for `Oc1ccc(CNC23CC4CC(CC(C4)C2)C3)cc1F` [Example 48, 4-(Adamantan-1-ylaminomethyl)-2-fluoro-phenol] is 31 to 95%.
Still for that read-out and setting: the figure for `c1cc2c(cc1CNC13CC4CC(CC(C4)C1)C3)OCO2` [Example 49] is 31 to 95%.
Consider `COc1cc(CNC23CC4CC(CC(C4)C2)C3)ccc1O` [Example 50, 4-(Adamantan-1-ylaminomethyl)-2-methoxy-phenol], for which the inhibition at 100 µM was 31 to 95%.
Consider `Cc1cc(CNC23CC4CC(CC(C4)C2)C3)ccc1O` [Example 51, 4-(Adamantan-1-ylaminomethyl)-2-methyl-phenol], for which the inhibition at 100 µM was in the range of 31 to 95%.
The same measure, in the same setting: the figure for `O=[N+]([O-])c1cc(CNC23CC4CC(CC(C4)C2)C3)ccc1O` [Example 52, 4-(Adamantan-1-ylaminomethyl)-2-nitro-phenol] is 31 to 95%; for `Fc1ccc(CNC23CC4CC(CC(C4)C2)C3)c(F)c1` [Example 54, Adamantan-1-yl-(2,4-difluoro-benzyl)-amine] it is 31 to 95%; for `CSc1ccc(CNC23CC4CC(CC(C4)C2)C3)c(SC)c1` [Example 55, Adamantan-1-yl-(2,4-bis-methylsulfanyl-benzyl)-amine] it is 0 to 30%.
The same measure, in the same setting: the figure for `COc1cc(O)ccc1CNC12CC3CC(CC(C3)C1)C2` [Example 56, 4-(Adamantan-1-ylaminomethyl)-3-methoxy-phenol] is 0 to 30%.
As to `Oc1cc(OCc2ccccc2)ccc1CNC12CC3CC(CC(C3)C1)C2` [Example 57, 2-(Adamantan-1-ylaminomethyl)-5-benzyloxy-phenol], the inhibition at 100 µM lay in the range of 31 to 95%.
Still for that read-out and setting: the figure for `Oc1ccc(CNC23CC4CC(CC(C4)C2)C3)c(Cl)c1` [Example 58, 4-(Adamantan-1-ylaminomethyl)-3-chloro-phenol] is 31 to 95%; for `COc1ccc(CNC23CC4CC(CC(C4)C2)C3)c(OC)c1` [Example 59, Adamantan-1-yl-(2,4-dimethoxy-benzyl)-amine] it is 0 to 30%; for `CC(=O)Oc1ccc(CNC23CC4CC(CC(C4)C2)C3)c(O)c1` [Example 60, Acetic acid 4-(adamantan-1-ylaminomethyl)-3-hydroxy-phenyl ester] it is 31 to 95%.
The same measure, in the same setting: the figure for `COc1ccc(CNC23CC4CC(CC(C4)C2)C3)cc1O` [Example 61, 5-(Adamantan-1-ylaminomethyl)-2-methoxy-phenol] is 31 to 95%.
The same measure, in the same setting: the figure for `Fc1ccc(C(F)(F)F)cc1CNC12CC3CC(CC(C3)C1)C2` [Example 62, Adamantan-1-yl-(2-fluoro-5-trifluoromethyl-benzyl)-amine] is 0 to 30%.

The test is the same for the next values; noted with them: Table 3; 100 uM; Xenopus oocytes, pH 5.5, -20 mV; read-out: S31 OOcyte Inhibition at 100 uM (%).
With `Clc1ccccc1-c1cc(CNC23CC4CC(CC(C4)C2)C3)no1` [Example 45b, N-((5-(2-chlorophenyl)isoxazol-3-yl)methyl)adamantan-1-amine], the inhibition at 100 µM was in the range of 0 to 30%.
Regarding `CSC(C)(C)Cc1cc(CNC23CC4CC(CC(C4)C2)C3)no1` [Example 46b, N-((5-(2-methyl-2-(methylthio)propyl)isoxazol-3-yl)methyl)adamantan-1-amine], the inhibition at 100 µM was 0 to 30%.
`Brc1ccsc1CNC12CC3CC(CC(C3)C1)C2` [Example 47b, N-((3-Bromothiophen-2-yl)methyl)adamantan-1-amine]: the inhibition at 100 µM lay in the range of 31 to 95%.
`c1sc(CNC23CC4CC(CC(C4)C2)C3)cc1C1CC1` [Example 48b, N-((4-Cyclopropylthiophen-2-yl)methyl)adamantan-1-amine]: the inhibition at 100 µM was 0 to 30%.
Same read-out and setting: the figure for `CCOc1ccc(-c2ccc(CNC34CC5CC(CC(C5)C3)C4)s2)cc1` [Example 49b, N-((5-(4-Ethoxyphenyl)thiophen-2-yl)methyl)adamantan-1-amine] is 0 to 30%; for `CC(C)(C)c1ccc(-c2ccc(CNC34CC5CC(CC(C5)C3)C4)s2)cc1` [Example 50b, N-((5-(4-(tert-Butyl)phenyl)thiophen-2-yl)methyl)adamantan-1-amine] it is 0 to 30%; for `Cc1csc(-c2ccc(CNC34CC5CC(CC(C5)C3)C4)s2)c1` [Example 51b, N-((4′-Methyl-[2,2′-bithiophen]-5-yl)methyl)adamantan-1-amine] it is 0 to 30%.
Same read-out and setting: the figure for `Cc1ccc(-c2ccc(CNC34CC5CC(CC(C5)C3)C4)s2)o1` [Example 52b, N-((5-(5-Methylfuran-2-yl)thiophen-2-yl)methyl)adamantan-1-amine] is 0 to 30%; for `c1ccc(-c2cnc(CNC34CC5CC(CC(C5)C3)C4)[nH]2)cc1` [Example 53b, N-((5-phenyl-1H-imidazol-2-yl)methyl)adamantan-1-amine] it is 0 to 30%.
The same measure, in the same setting: the figure for `c1nc(N2CCCC2)ncc1CNC12CC3CC(CC(C3)C1)C2` [Example 54b, N-((2-(pyrrolidin-1-yl)pyrimidin-5-yl)methyl)adamantan-1-amine] is 0 to 30%; for `COc1ncc(CNC23CC4CC(CC(C4)C2)C3)cn1` [Example 55b, N-((2-methoxypyrimidin-5-yl)methyl)adamantan-1-amine] it is 0 to 30%; for `CCSc1ncc(CNC23CC4CC(CC(C4)C2)C3)cn1` [Example 56b, N-((2-(ethylthio)pyrimidin-5-yl)methyl)adamantan-1-amine] it is 0 to 30%.
As for `c1nc(N2CCOCC2)ncc1CNC12CC3CC(CC(C3)C1)C2` [Example 57b, N-((2-morpholinopyrimidin-5-yl)methyl)adamantan-1-amine], the inhibition at 100 µM was in the range of 0 to 30%.
In the case of `c1nc(N2CCCCC2)ncc1CNC12CC3CC(CC(C3)C1)C2` [Example 58b, N-((2-(piperidin-1-yl)pyrimidin-5-yl)methyl)adamantan-1-amine], the inhibition at 100 µM was 0 to 30%.
With `CN(C)c1ncc(CNC23CC4CC(CC(C4)C2)C3)cn1` [Example 59b, N-((2-dimethylaminopyrimidin-5-yl)methyl)adamantan-1-amine], the inhibition at 100 µM is 0 to 30%.
Still for that read-out and setting: the figure for `CCOC(=O)CN(C)c1ncc(CNC23CC4CC(CC(C4)C2)C3)cn1` [Example 60b, N-((2-methyl(ethylcarboxymethyl)aminopyrimidin-5-yl)methyl)adamantan-1-amine] is 0 to 30%; for `c1nc(C2CCCCC2)ncc1CNC12CC3CC(CC(C3)C1)C2` [Example 61b, N-((2-cyclohexylpyrimidin-5-yl)methyl)adamantan-1-amine] it is 0 to 30%.
